Experimental data: EP0768085A1, “ANTIBACTERIAL AGENT” (DAIICHI PHARMACEUTICAL CO., LTD., priority 1994, dated 1996)
≈ marks a conversion by molar mass, not a printed value.

Columns and labels:
Assay type in all cases: cell-based
[1] = tested on: Staphylococcus aureus (209-P); assay: Antibacterial activity (IC), agar as in Example 8 (Example 15, Table 48); conditions: 18 h
Experimental: (§1) The antibacterial action was evaluated by the inhibitory concentration (hereinafter abbreviated as IC) at which propagation of the bacteria cultured at 37°C for 18 hours was inhibited. Inhibition was determined by the turbidity of the medium. The expressions "IC≤100", "≤10", and "≤1" indicate that MIC-equivalent values obtained at the succesive […] dilution of the sample are 100-10 µg/ml, 10-1 µg/ml, and not more than 1 µg/ml, respectively. […] (In the subsequent Examples, the same rule applies correspondingly.) Table 39
(§2) A suitable amount of a sample was dissolved in dimethylsulfoxide (DMSO), after which the resulting solution was diluted with the same amount of sterilized distilled water to prepare a bulk sample of 1,000 µg/ml. Separately, a bacterial liquid for the test (methicillin-resistant Staphylococcus aureus (MRSA) isolated from humans) which had been cultured in Mueller-Hinton broth (product of DIFCO) was prepared and inoculated to a Mueller-Hinton agar (product of DIFCO) containing the sample so that the final inoculation amount of 10^6 CFU/ml was achieved. The final concentrations of the samples were 100, 10, and 1 µg/ml.
(§3) After culturing at 37°C for 18 hours, the antibacterial activity was evaluated in terms of IC in a manner similar to that described in Example 4.
The bacterium used for the test was Staphylococcus aureus (209-P).

[2] = tested on: Streptococcus aureus (TI-1); assay: Antibacterial activity (IC), agar as in Example 8 (Example 16, Table 49); conditions: 18 h
Experimental: as §1, §2, §3
In a manner similar to that described in Example 8, antibacterial activity of the invention compound was determined. The bacterium used for the test was […] aureus (TI-1).

[3] = tested on: Pasteurella multocida (Kobe-6); assay: Antibacterial activity (IC), agar as in Example 8 (Example 17, Table 50); conditions: 18 h, origin pig
Experimental: as §1, §2, §3
In a manner similar to that described in Example 8, antibacterial activity of the invention compound was determined. The bacterium used for the test was Pasteurella Kobe-6 (origin: pig, Pasteurella multocida).

[4] = tested on: methicillin-resistant Staphylococcus aureus (MRSA) from humans; assay: Antibacterial activity (IC), agar as in Example 8 (Example 19, Table 52); conditions: 18 h
Experimental: as §1, §2, §3
In a manner similar to that described in Example 8, antibacterial activity of a variety of ketonitrile derivatives shown in Table 52 was measured. The bacterium used for the test was methicillin-resistant Staphylococcus aureus (MRSA) from humans.

Enterococcus from fish = assay: Antibacterial activity (IC), agar as in Example 8, media with 1.5% NaCl, 25°C (Example 20, Tables 53-55); conditions: for MIC: Enterococcus Seriolicida SE94-002
Experimental: as §1, §2, §3
(§4) In a manner similar to that described in Example 8, antibacterial activity of a variety of ketonitrile derivatives shown in Tables 53-55 was measured. The bacteria used for the test were Enterococcus and Pasteurella from fish. The culture conditions were such that the media contained 1.5% NaCl, and the culture temperature was 25°C.

Pasteurella from fish = assay: as above; conditions: for MIC: Pasteurella piscicida KP94-02
Experimental: as §1, §2, §3, §4

[5] = Enterococcus Seriolicida KG86050
[6] = Enterococcus Seriolicida MS89060
[7] = Enterococcus Seriolicida MS89064
[8] = Enterococcus Seriolicida MS89066
[9] = Enterococcus Seriolicida MS89068
[10] = Enterococcus Seriolicida SE94-001
[11] = Enterococcus Seriolicida SE94-003
[12] = Enterococcus Seriolicida SE94-004
[13] = Enterococcus Seriolicida SE94-005

Structure (SMILES) | MIC [1] [mg/L] | MIC [2] [mg/L] | MIC [3] [mg/L] | IC (Enterococcus from fish; Enterococcus Seriolicida HI) | IC (Enterococcus from fish; [5]) | IC (Enterococcus from fish; [6]) | IC (Enterococcus from fish; [7]) | IC (Enterococcus from fish; [8]) | IC (Enterococcus from fish; [9]) | IC (Enterococcus from fish; [10]) | MIC (Enterococcus from fish) [mg/L] | IC (Enterococcus from fish; [11]) | IC (Enterococcus from fish; [12]) | IC (Enterococcus from fish; [13]) | MIC (Pasteurella from fish) [mg/L] | IC (Pasteurella from fish; Pasteurella piscicida KP94-04) | IC (Pasteurella from fish; Pasteurella piscicida KP94-05) | IC (Pasteurella from fish; Pasteurella piscicida KP94-06) | other results
CC(Oc1cccc(Oc2ccc(C(F)(F)F)cc2Cl)c1)C(=O)C(C#N)c1ccccc1 (stereo not drawn) [Compound No. 105, 4-[3-(2-chloro-4-trifluoromethylphenoxy)phenoxy]-3-oxo-2-phenylpentanonitrile] | 1 to 10 (≈ 2.17 to 21.7 µM) | 1 to 10 (≈ 2.17 to 21.7 µM) | 10 to 100 (≈ 21.7 to 217 µM) | ≤10 (10-1 µg/ml) | ≤10 (10-1 µg/ml) | ≤10 (10-1 µg/ml) | ≤10 (10-1 µg/ml) | ≤10 (10-1 µg/ml) | ≤10 (10-1 µg/ml) | ≤10 (10-1 µg/ml) | 1 to 10 (≈ 2.17 to 21.7 µM) | ≤10 (10-1 µg/ml) | ≤10 (10-1 µg/ml) | ≤10 (10-1 µg/ml) | 10 to 100 (≈ 21.7 to 217 µM) | ≤100 (MIC-equivalent values obtained at the succesive 2-fold dilution of the sample are 100-10 µg/ml) | ≤100 (MIC-equivalent values obtained at the succesive 2-fold dilution of the sample are 100-10 µg/ml) | ≤100 (MIC-equivalent values obtained at the succesive 2-fold dilution of the sample are 100-10 µg/ml) | MIC ([4]; MRSA strain 891179): 1 to 10 mg/L (≈ 2.17 to 21.7 µM); MIC ([4]; MRSA strain 891185): 1 to 10 mg/L (≈ 2.17 to 21.7 µM); MIC ([4]; MRSA strain 891187): 1 to 10 mg/L (≈ 2.17 to 21.7 µM); MIC ([4]; MRSA strain 891192): 1 to 10 mg/L (≈ 2.17 to 21.7 µM); MIC ([4]; MRSA strain 900048): 1 to 10 mg/L (≈ 2.17 to 21.7 µM); MIC ([4]; MRSA strain 900056): 1 to 10 mg/L (≈ 2.17 to 21.7 µM)
CC(Oc1cccc(Oc2ccc(C(F)(F)F)cc2Cl)c1)C(=O)C(C#N)c1cccc(C(F)(F)F)c1 (stereo not drawn) [Compound No. 106, 4-[3-(2-chloro-4-trifluoromethylphenoxy)phenoxy]-3-oxo-2-(3-trifluoromethylphenyl)pentanonitrile] | 1 to 10 (≈ 1.89 to 18.9 µM) | 1 to 10 (≈ 1.89 to 18.9 µM) | 10 to 100 (≈ 18.9 to 189 µM) | ≤10 (10-1 µg/ml) | ≤10 (10-1 µg/ml) | ≤10 (10-1 µg/ml) | ≤10 (10-1 µg/ml) | ≤10 (10-1 µg/ml) | ≤10 (10-1 µg/ml) | ≤10 (10-1 µg/ml) | 1 to 10 (≈ 1.89 to 18.9 µM) | ≤10 (10-1 µg/ml) | ≤10 (10-1 µg/ml) | ≤10 (10-1 µg/ml) | 10 to 100 (≈ 18.9 to 189 µM) | ≤100 (MIC-equivalent values obtained at the succesive 2-fold dilution of the sample are 100-10 µg/ml) | ≤100 (MIC-equivalent values obtained at the succesive 2-fold dilution of the sample are 100-10 µg/ml) | ≤100 (MIC-equivalent values obtained at the succesive 2-fold dilution of the sample are 100-10 µg/ml) | 
CC(Oc1cccc(Oc2ccc(C(F)(F)F)cc2Cl)c1)C(=O)C(C#N)c1ccc(Cl)cc1Cl (stereo not drawn) [Compound No. 108, 4-[3-(2-chloro-4-trifluoromethyl-phenoxy)phenoxy)-2-(2,4-dichlorophenyl)-3-oxopentanonitrile] | 1 to 10 (≈ 1.89 to 18.9 µM) | 1 to 10 (≈ 1.89 to 18.9 µM) | 10 to 100 (≈ 18.9 to 189 µM) | ≤10 (10-1 µg/ml) | ≤10 (10-1 µg/ml) | ≤10 (10-1 µg/ml) | ≤10 (10-1 µg/ml) | ≤10 (10-1 µg/ml) | ≤10 (10-1 µg/ml) | ≤10 (10-1 µg/ml) | 1 to 10 (≈ 1.89 to 18.9 µM) | ≤10 (10-1 µg/ml) | ≤10 (10-1 µg/ml) | ≤10 (10-1 µg/ml) | 10 to 100 (≈ 18.9 to 189 µM) | ≤100 (MIC-equivalent values obtained at the succesive 2-fold dilution of the sample are 100-10 µg/ml) | ≤100 (MIC-equivalent values obtained at the succesive 2-fold dilution of the sample are 100-10 µg/ml) | ≤100 (MIC-equivalent values obtained at the succesive 2-fold dilution of the sample are 100-10 µg/ml) | 
